Results reported in ChEMBL document CHEMBL1146540, “Bioactive constituents from three Vismia species” (2003).
≈ marks a conversion by molar mass, not a printed value. Calls of active or inactive are those of the source. The calls are words filed in the database; no cut-off is given here.

What was measured:
Format in all cases: functional
MCF7 = experiment: Cytotoxicity against human MCF7 cells
NCI-H460 = experiment: Cytotoxicity against human H460 cells
SF-268 = experiment: Cytotoxicity against human SF268 cells

## COc1cc2c(c(O)c1/C=C/C(C)C)C(=O)c1c(O)cc(C)cc1C2=O
MCF7
  Activity: inactive
NCI-H460
  Activity: inactive
SF-268
  Activity: inactive

## COc1cc2c(c(O)c1/C=C/C(C)C)C(=O)c1c(O)cc(C)cc1C2C1c2cc(C)cc(O)c2C(=O)c2c1cc(OC)c(/C=C/C(C)C)c2O (stereo not given)
MCF7
  Activity: inactive
NCI-H460
  Activity: inactive
SF-268
  Activity: inactive

## COc1cc2cc3c(c(O)c2c(O)c1/C=C/C(C)C)C(=O)CC(C)(O)C3 (stereo not given) [DEACETYLVISMIONE A]
MCF7
  GI50: 1.8 µg/mL (≈ 5.05 µM)
NCI-H460
  GI50: 1.9 µg/mL (≈ 5.33 µM)
SF-268
  GI50: 2.2 µg/mL (≈ 6.17 µM)

## CC(C)=CCOc1cc(O)c2c(O)c3c(cc2c1)CC(C)(O)CC3=O (stereo not given) [DEACETYLVISMIONE H]
MCF7
  GI50: 0.4 µg/mL (≈ 1.17 µM)
NCI-H460
  GI50: 0.6 µg/mL (≈ 1.75 µM)
SF-268
  GI50: 0.6 µg/mL (≈ 1.75 µM)

## CC(C)=CCc1c(C)cc2cc3c(c(O)c2c1O)C(=O)C=C(O)C3(CC=C(C)C)CC=C(C)C [FERRUGININ A]
MCF7
  GI50: 5 µg/mL (≈ 10.9 µM)
NCI-H460
  GI50: 3.3 µg/mL (≈ 7.16 µM)
SF-268
  GI50: 4.9 µg/mL (≈ 10.6 µM)

## CC(C)=CCC1=C(O)C(CC=C(C)C)(CC=C(C)C)c2cc3cc(C)cc(O)c3c(O)c2C1=O [FERRUGININ B]
MCF7
  GI50: 5 µg/mL (≈ 10.9 µM)
NCI-H460
  GI50: 5 µg/mL (≈ 10.9 µM)
SF-268
  GI50: 4 µg/mL (≈ 8.68 µM)

## CC(C)=CCC1=C(O)C(CC=C(C)C)(CC=C(C)C)c2cc3c(CC=C(C)C)c(C)cc(O)c3c(O)c2C1=O [FERRUGININ C]
MCF7
  GI50: 4.8 µg/mL (≈ 9.08 µM)
NCI-H460
  GI50: 5.4 µg/mL (≈ 10.2 µM)
SF-268
  GI50: 4 µg/mL (≈ 7.57 µM)

## CC(C)=CCc1c(C)cc(O)c2c(O)c3c(cc12)C(CC=C(C)C)(CC=C(C)C)C(O)=CC3=O [HARUNGANIN]
MCF7
  GI50: 6 µg/mL (≈ 13 µM)
NCI-H460
  GI50: 6.4 µg/mL (≈ 13.9 µM)
SF-268
  GI50: 6 µg/mL (≈ 13 µM)

## CC(C)=CCC1(CC=C(C)C)C(O)=CC(=O)c2c1cc1cc(C)cc(O)c1c2O [VISMIN]
MCF7
  GI50: 5.2 µg/mL (≈ 13.2 µM)
NCI-H460
  GI50: 7.3 µg/mL (≈ 18.6 µM)
SF-268
  GI50: 5.7 µg/mL (≈ 14.5 µM)

## COc1cc2cc3c(c(O)c2c2c1C=CC(C)(C)O2)C(=O)CC(C)(O)C3 (stereo not given) [VISMIONE B]
MCF7
  GI50: 1.6 µg/mL (≈ 4.51 µM)
NCI-H460
  GI50: 2.8 µg/mL (≈ 7.9 µM)
SF-268
  GI50: 2.5 µg/mL (≈ 7.05 µM)
